# PMC8217813, “Bridging Computational Vaccinology and Vaccine Development Through Systematic Identification, Characterization, and Downselection of Conserved and Variable Circumsporozoite Protein CD4 T Cell Epitopes From Diverse Plasmodium falciparum Strains” (Frontiers in Immunology, 2021)
# Peptide text beside a SMILES is read from it.
# Assays:
# [1] = molecular target: T1, HLA-DRB1*0101 (Homo sapiens, UniProt P01903+P01911, A100R/D57E/F55L/F60I/F76Y/I96L/L162R/M171V/P40L/Q125E/R42F/V115G/Y59C); assay: In vitro class II HLA binding competition assay; settings: competition with fluorescent-labeled reference peptide, class II HLA monomers, 24-hours, test peptide 100,000 nM to 100 nM, time-resolved fluorescence
# T1 construct: purchased
# How it was run: (§1)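 Test peptides at final concentrations of 100,000 nM to 100 nM competed with a fluorescent-labelled reference peptide for limiting class II HLA monomers over 24 hours. Complexes were captured on anti-HLA-DR plates and detected by europium time-resolved fluorescence. IC50 calculated from percent inhibition of reference binding.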
# [2] = molecular target: HLA-DRB1*0301 (Homo sapiens, UniProt P01903+P01911, A100K/A102G/A103R/A169T/F55Y/I96L/K41T/L162R/M171V/P40S/Q125H/Q178H/Q39Y/R42S/S66N/T106N/T262R/W38E/Y61H); assay: In vitro class II HLA binding competition assay; settings: competition with fluorescent-labeled reference peptide, class II HLA monomers, 24-hours, test peptide 100,000 nM to 100 nM, time-resolved fluorescence
# How it was run: as §1
# [3] = molecular target: T2, HLA-DRB1*0401 (Homo sapiens, UniProt P01903+P01911, A100K/A169T/F76Y/I96L/K127E/L162R/M171V/N62H/P40V/Q125Y/R42H/S133A/S149N/S66Y/V115G/V209L/W38E); assay: In vitro class II HLA binding competition assay; settings: competition with fluorescent-labeled reference peptide, class II HLA monomers, 24-hours, test peptide 100,000 nM to 100 nM, time-resolved fluorescence; read-out: IC50, DRB1*0401
# T2 construct: purchased
# How it was run: as §1
# [4] = molecular target: HLA-DRB1*0701 (Homo sapiens, UniProt P01903+P01911, A100R/A102G/A103Q/D57E/D86V/E43K/F76Y/K127E/L162R/M171V/P40G/Q125H/Q99D/R33Q/R42Y/R54Q/S133A/S66F/T210M/V115G/Y107V/Y59L/Y89S); assay: In vitro class II HLA binding competition assay; settings: competition with fluorescent-labeled reference peptide, class II HLA monomers, 24-hours, test peptide 100,000 nM to 100 nM, time-resolved fluorescence; read-out: IC50, DRB1*0701
# How it was run: as §1
# [5] = molecular target: T3, HLA-DRB1*1101 (Homo sapiens, UniProt P01903+P01911, A100R/A169T/A87E/I96F/K41T/L162R/M171V/P40S/Q125H/Q178H/Q39Y/Q99D/R42S/S66Y/T262R/V115G/W38E); assay: In vitro class II HLA binding competition assay; settings: competition with fluorescent-labeled reference peptide, class II HLA monomers, 24-hours, test peptide 100,000 nM to 100 nM, time-resolved fluorescence
# T3 construct: purchased
# How it was run: as §1
# [6] = molecular target: HLA-DRB1*1301 (Homo sapiens, UniProt P01903+P01911, A100E/A169T/K41T/L162R/M171V/P40S/Q125H/Q178H/Q39Y/Q99D/R42S/S66N/T262R/W38E/Y61H); assay: In vitro class II HLA binding competition assay; settings: competition with fluorescent-labeled reference peptide, class II HLA monomers, 24-hours, test peptide 100,000 nM to 100 nM, time-resolved fluorescence
# How it was run: as §1
# [7] = molecular target: T4, HLA-DRB1*1501 (Homo sapiens, UniProt P01903+P01911); assay: In vitro class II HLA binding competition assay; settings: competition with fluorescent-labeled reference peptide, class II HLA monomers, 24-hours, test peptide 100,000 nM to 100 nM, time-resolved fluorescence; read-out: IC50, DRB1*1501
# T4 construct: purchased
# How it was run: as §1
# [8] = system: CD4 T cells co-cultured with autologous DCs from PBMCs; assay type: cell-based, human; settings: positive = Stimulation Index ≥1.5-fold above baseline, 5 µg/mL peptide
# [9] = molecular target: T5, HLA A*0201 (Homo sapiens, UniProt P04439, D140Y/D185E/D98H/E176V/E277Q/G131W/G231S/I119V/I121R/I166T/I218V/L300P/L318F/N151K/N90K/P208A/P217A/Q86G/Q94H/R138H/R169H/T345S); assay: biochemical; assay type: binding
# T5 construct: Pure Protein, LLC (ran the assay)
# [10] = molecular target: T6, HLA A*2402 (Homo sapiens, UniProt P04439, D101N/D140Y/D185E/E176V/E190D/F33S/G103R/G107R/I119L/I121M/I306V/K335N/L105A/L180Q/L300P/N151K/N90K/Q86E/Q94H/R106L/R138H/R89G/T104I/T345S/V100E/W191G/Y123F); assay: In vitro class I HLA binding competition assay (fluorescence polarization); settings: allele A2402; cell-free competition with fluorescently labeled control peptide, fluorescence polarization at 72 hours
# T6 construct: Pure Protein, LLC (ran the assay)
# Protocol: The cell-free class I HLA binding assay in use at Pure Protein, LLC allows for in vitro quantification of peptide-HLA binding affinity in a competition format. In this assay, a fluorescently labeled, high binding, control peptide is loaded onto 384-well ½-area plates along with unlabeled experimental peptides. To remove endogenous peptides and render the HLA A and B molecules receptive to binding, HLA is heated at 53°C for 15 minutes and immediately added to the assay. The mixture is then allowed to stand for three days. […] Binding of experimental peptides is expressed as the percent inhibition of the labeled control peptide (experimental fluorescence / control fluorescence, multiplied by 100). The percent inhibition values for each experimental peptide (across a range of molar concentrations) are used to calculate the concentration which inhibits 50% of the labeled control peptide’s specific binding. This value is referred to as the peptide’s IC50.
# [11] = molecular target: T7, HLA B*0702 (Homo sapiens, UniProt P01889); assay: biochemical; assay type: binding
# T7 construct: Pure Protein, LLC (ran the assay)
structure (smiles),measurement,setting,value
CC[C@H](C)[C@H](NC(=O)[C@H](CO)NC(=O)[C@H](CO)NC(=O)[C@H](CC(N)=O)NC(=O)[C@@H](NC(=O)[C@@H](NC(=O)[C@H](CC(N)=O)NC(=O)[C@H](Cc1ccccc1)NC(=O)[C@@H](NC(=O)[C@H](CO)NC(=O)[C@H](CO)NC(=O)[C@@H](N)CCCCN)C(C)C)C(C)C)C(C)C)C(=O)NCC(=O)N[C@@H](CC(C)C)C(=O)N[C@H](C(=O)N[C@@H](CCSC)C(=O)N[C@H](C(=O)N[C@@H](CC(C)C)C(=O)N[C@@H](CO)C(N)=O)C(C)C)[C@@H](C)CC [Cluster C4] (H-KSSVFNVVNSSIGLIMVLS-NH2),IC50,[1],526 nM
same,IC50,[2],1100 nM
same,IC50,[3],1690 nM
same,IC50,[4],2070 nM
same,IC50,[5],1040 nM
same,IC50,[6],1200 nM
same,IC50,[7],12300 nM
same,"Percentage of donors demonstrating IFN-γ responses, DR1","[8]; DR1 donors N=5, ICCS after 14-day co-culture",20%
same,"Percentage of donors demonstrating IL-2 responses, DR1","[8]; DR1 donors N=5, ICCS",0%
same,"Percentage of donors demonstrating IL-4 responses, DR1","[8]; DR1 donors N=5, ICCS",0%
same,"Percentage of donors demonstrating IL-10 responses, DR1","[8]; DR1 donors N=5, ICCS",20%
same,"Percentage of donors demonstrating TNF-α responses, DR1","[8]; DR1 donors N=5, ICCS",0%
same,"Percentage of donors demonstrating IFN-γ responses, DR3","[8]; DR3 donors N=6, ICCS after 14-day co-culture",17%
same,"Percentage of donors demonstrating IL-2 responses, DR3","[8]; DR3 donors N=6, ICCS",0%
same,"Percentage of donors demonstrating IL-4 responses, DR3","[8]; DR3 donors N=6, ICCS",0%
same,"Percentage of donors demonstrating IL-10 responses, DR3","[8]; DR3 donors N=6, ICCS",0%
same,"Percentage of donors demonstrating TNF-α responses, DR3","[8]; DR3 donors N=6, ICCS",0%
same,"Percentage of donors demonstrating IFN-γ responses, DR4","[8]; DR4 donors N=10, ICCS after 14-day co-culture",30%
same,"Percentage of donors demonstrating IL-2 responses, DR4","[8]; DR4 donors N=10, ICCS",0%
same,"Percentage of donors demonstrating IL-4 responses, DR4","[8]; DR4 donors N=10, ICCS",40%
same,"Percentage of donors demonstrating IL-10 responses, DR4","[8]; DR4 donors N=10, ICCS",20%
same,"Percentage of donors demonstrating TNF-α responses, DR4","[8]; DR4 donors N=10, ICCS",10%
same,"Percentage of donors demonstrating IFN-γ responses, DR7","[8]; DR7 donors N=4, ICCS after 14-day co-culture",0%
same,"Percentage of donors demonstrating IL-2 responses, DR7","[8]; DR7 donors N=4, ICCS",0%
same,"Percentage of donors demonstrating IL-4 responses, DR7","[8]; DR7 donors N=4, ICCS",25%
same,"Percentage of donors demonstrating IL-10 responses, DR7","[8]; DR7 donors N=4, ICCS",0%
same,"Percentage of donors demonstrating TNF-α responses, DR7","[8]; DR7 donors N=4, ICCS",0%
same,"Percentage of donors demonstrating IFN-γ responses, DR8","[8]; DR8 donors N=4, ICCS after 14-day co-culture",25%
same,"Percentage of donors demonstrating IL-2 responses, DR8","[8]; DR8 donors N=4, ICCS",25%
same,"Percentage of donors demonstrating IL-4 responses, DR8","[8]; DR8 donors N=4, ICCS",25%
same,"Percentage of donors demonstrating IL-10 responses, DR8","[8]; DR8 donors N=4, ICCS",25%
same,"Percentage of donors demonstrating TNF-α responses, DR8","[8]; DR8 donors N=4, ICCS",25%
same,"Percentage of donors demonstrating IFN-γ responses, DR9","[8]; DR9 donors N=4, ICCS after 14-day co-culture",0%
same,"Percentage of donors demonstrating IL-2 responses, DR9","[8]; DR9 donors N=4, ICCS",25%
same,"Percentage of donors demonstrating IL-4 responses, DR9","[8]; DR9 donors N=4, ICCS",25%
same,"Percentage of donors demonstrating IL-10 responses, DR9","[8]; DR9 donors N=4, ICCS",0%
same,"Percentage of donors demonstrating TNF-α responses, DR9","[8]; DR9 donors N=4, ICCS",25%
same,"Percentage of donors demonstrating IFN-γ responses, DR11","[8]; DR11 donors N=4, ICCS after 14-day co-culture",50%
same,"Percentage of donors demonstrating IL-2 responses, DR11","[8]; DR11 donors N=4, ICCS",25%
same,"Percentage of donors demonstrating IL-4 responses, DR11","[8]; DR11 donors N=4, ICCS",0%
same,"Percentage of donors demonstrating IL-10 responses, DR11","[8]; DR11 donors N=4, ICCS",0%
same,"Percentage of donors demonstrating TNF-α responses, DR11","[8]; DR11 donors N=4, ICCS",25%
same,"Percentage of donors demonstrating IFN-γ responses, DR13","[8]; DR13 donors N=7, ICCS after 14-day co-culture",29%
same,"Percentage of donors demonstrating IL-2 responses, DR13","[8]; DR13 donors N=7, ICCS",43%
same,"Percentage of donors demonstrating IL-4 responses, DR13","[8]; DR13 donors N=7, ICCS",14%
same,"Percentage of donors demonstrating IL-10 responses, DR13","[8]; DR13 donors N=7, ICCS",0%
same,"Percentage of donors demonstrating TNF-α responses, DR13","[8]; DR13 donors N=7, ICCS",43%
same,"Percentage of donors demonstrating IFN-γ responses, DR15","[8]; DR15 donors N=7, ICCS after 14-day co-culture",0%
same,"Percentage of donors demonstrating IL-2 responses, DR15","[8]; DR15 donors N=7, ICCS",0%
same,"Percentage of donors demonstrating IL-4 responses, DR15","[8]; DR15 donors N=7, ICCS",29%
same,"Percentage of donors demonstrating IL-10 responses, DR15","[8]; DR15 donors N=7, ICCS",0%
same,"Percentage of donors demonstrating TNF-α responses, DR15","[8]; DR15 donors N=7, ICCS",14%
CC[C@H](C)[C@H](NC(=O)[C@H](CCCCN)NC(=O)[C@H](CCCCN)NC(=O)[C@H](CC(C)C)NC(=O)[C@@H](N)Cc1ccc(O)cc1)C(=O)N[C@@H](CCC(N)=O)C(=O)N[C@@H](CC(N)=O)C(=O)N[C@@H](CO)C(=O)N[C@@H](CC(C)C)C(=O)O [Cluster 319_ICS2] (H-YLKKIQNSL-OH),IC50,[9],2180 nM
same,IC50,[10],11200 nM
same,IC50,[11],9200 nM
